Reference: the supplement of paper PMC13380429

Columns and labels:
Settings in all cases: 72 h
HepG2 [1] = test: cell viability relative to DMSO; higher = less toxic
Vero E6 [2] = test: as above
U2OS [3] = test: as above
Calu-3 [4] = test: as above
Caco-2 [5] = test: as above
HepG2 [6] = test: relative viability EC50 (midpoint between 100% and the lowest measured viability); higher = less toxic
Vero E6 [7] = test: as above
U2OS [8] = test: as above
Calu-3 [9] = test: as above
Caco-2 [10] = test: as above
HepG2 [11] = test: drug sensitivity score (DSS) for viability; higher = more toxic; extreme values may be limits of the assay
Vero E6 [12] = test: as above
U2OS [13] = test: as above
Calu-3 [14] = test: as above
Caco-2 [15] = test: as above

Compound	cell viability (HepG2 [1]; 1 nM) [%]	cell viability (HepG2 [1]; 10 nM) [%]	cell viability (HepG2 [1]; 100 nM) [%]	cell viability (HepG2 [1]; 1000 nM) [%]	cell viability (HepG2 [1]; 10000 nM) [%]	cell viability (Vero E6 [2]; 1 nM) [%]	cell viability (Vero E6 [2]; 10 nM) [%]	cell viability (Vero E6 [2]; 100 nM) [%]	cell viability (Vero E6 [2]; 1000 nM) [%]	cell viability (Vero E6 [2]; 10000 nM) [%]	cell viability (U2OS [3]; 1 nM) [%]	cell viability (U2OS [3]; 10 nM) [%]	cell viability (U2OS [3]; 100 nM) [%]	cell viability (U2OS [3]; 1000 nM) [%]	cell viability (U2OS [3]; 10000 nM) [%]	cell viability (Calu-3 [4]; 1 nM) [%]	cell viability (Calu-3 [4]; 10 nM) [%]	cell viability (Calu-3 [4]; 100 nM) [%]	cell viability (Calu-3 [4]; 1000 nM) [%]	cell viability (Calu-3 [4]; 10000 nM) [%]	cell viability (Caco-2 [5]; 1 nM) [%]	cell viability (Caco-2 [5]; 10 nM) [%]	cell viability (Caco-2 [5]; 100 nM) [%]	cell viability (Caco-2 [5]; 1000 nM) [%]	cell viability (Caco-2 [5]; 10000 nM) [%]	relative viability EC50 (HepG2 [6]) [µM]	relative viability EC50 (Vero E6 [7]) [µM]	relative viability EC50 (U2OS [8]) [µM]	relative viability EC50 (Calu-3 [9]) [µM]	relative viability EC50 (Caco-2 [10]) [µM]	drug sensitivity score (HepG2 [11])	drug sensitivity score (Vero E6 [12])	drug sensitivity score (U2OS [13])	drug sensitivity score (Calu-3 [14])	drug sensitivity score (Caco-2 [15])
Cc1nccc2c1[nH]c1ccccc12 [harmane]	92.9	96.2	99.6	99.1	105	97.2	102	94.3	96.6	98.2	101	98.8	100	97.5	101	106	97.7	101	91.8	103	95.1	101	105	102	93	> 10	> 10	> 10	> 10	> 10	0	0	0	0	0
CC(N)CCCC(C)(C)O (stereo not given) [heptaminol]	106	96.3	102	95.6	104	95.1	95.7	97.3	94.3	104	95.1	97.7	98.1	103	105	94.4	144	103	101	94.2	90.3	91.7	96.7	107	106	> 10	> 10	> 10	> 10	> 10	0	0	0	0	0
CCCCCCOC(=O)CCC(=O)CN [hexaminolevulinate]	111	105	99	102	101	109	98	104	99.2	99.5	100	102	98.1	103	98.4	93.9	101	111	108	104	102	93.7	101	104	96.6	> 10	> 10	> 10	> 10	> 10	0	0	0	0	0
C[N+]1(C)[C@@H]2CC[C@H]1C[C@@H](OC(=O)C(O)c1ccccc1)C2 (stereo not given in full) [homatropine-methylbromide]	98.7	95.3	102	91.8	98.9	101	97.5	106	108	98.8	96.7	101	95.2	102	96.4	105	108	114	94.2	102	100	90.8	99.7	106	84.2	> 10	> 10	> 10	> 10	> 10	0	0	0	0	0.2
Oc1ccc(O)cc1 [hydroquinone]	106	92.4	94.7	100	84.6	93.3	100	94.8	105	111	95.2	91	95.4	89	117	90.5	90	93.7	100	113	100	97.6	94.2	104	106	> 10	> 10	> 10	> 10	> 10	0.3	0	0	0	0
O=C(/C=C/c1ccc2c(c1)OCO2)N1CCCCC1 [ilepcimide]	102	97.2	106	112	103	91	98.1	94.2	96.6	97.7	98.2	94.6	98.3	95.8	97.1	99.5	108	106	102	102	96.3	104	106	130	102	> 10	> 10	> 10	> 10	> 10	0	0	0	0	0
Cn1cc(C[C@@H](N)C(=O)O)c2ccccc21 [indoximod]	114	97.6	102	118	101	104	95.4	91.6	101	102	102	97	102	99.4	103	107	98.7	96.3	103	106	94.5	83.8	81.7	91.7	104	> 10	> 10	> 10	> 10	> 10	0	0	0	0	0.1
CCC(NC(C)C)C(O)c1ccc(O)c(O)c1 (stereo not given) [isoetharine]	102	96.7	104	101	102	93.1	91.8	92.9	91.9	102	90.2	97.3	95.1	95.4	94	108	98.9	88.4	103	95.6	85.9	100	118	102	104	> 10	> 10	> 10	> 10	> 10	0	0	0	0	0
O=C(c1ccc(F)cc1)C1CCN(CCn2c(=O)[nH]c3ccccc3c2=O)CC1 [ketanserin]	102	95	97.3	102	97.2	96.9	94.9	97.8	101	103	90	98.3	96.1	103	106	96.2	95.8	90.3	92.9	102	93.1	100	95.6	99.7	96.9	> 10	> 10	> 10	> 10	> 10	0	0	0	0	0
Cc1ncc(OC[C@@]2(c3cccc(F)c3)C[C@H]2C(=O)Nc2ccc(F)cn2)c(C)n1 [lemborexant]	97.1	103	97.8	97.9	97.3	97.4	98.1	96.8	101	96.2	100	100	96	101	98.1	100	100	97.6	99.6	106	94.9	97.5	89.6	94.5	100	> 10	> 10	> 10	> 10	> 10	0	0	0	0	0
CNC(=N)NC(=O)Nc1c(C)cccc1C [lidamidine]	101	89.3	106	104	108	99.6	96	97.7	102	105	98.6	100	97.7	99.5	100	103	102	96.2	88.7	104	90.4	99	91.9	95.3	92.5	> 10	> 10	> 10	> 10	> 10	0	0	0	0	0
CCn1cc(C(=O)O)c(=O)c2cc(F)c(N3CCNC(C)C3)c(F)c21 (stereo not given) [lomefloxacin]	114	111	120	102	94.1	105	103	98.8	106	95.3	105	98.3	102	104	104	95.8	96.8	108	80.1	94.6	107	103	108	91.2	104	> 10	> 10	> 10	> 10	> 10	0	0	0	2.4	0
C/C(=C\C(=O)OCCCCCCCCC(=O)O)C[C@@H]1OC[C@H](C[C@@H]2O[C@H]2[C@@H](C)[C@H](C)O)[C@@H](O)[C@H]1O [mupirocin]	104	100	100	100	92.2	97	102	95.4	97.3	97.1	104	99.7	99.3	94.7	99.8	106	104	102	90.8	109	99.9	107	95.2	98	102	> 10	> 10	> 10	> 10	> 10	0	0	0	0	0
COc1c(C)c2c(c(O)c1C/C=C(\C)CCC(=O)O)C(=O)OC2 [mycophenolic-acid]	101	95.7	95.2	57.5	31.8	96.1	103	96.2	75.2	34.2	98.3	102	94.7	62.6	21.9	96.3	96.2	97.2	71.3	49.5	93.1	102	103	77.5	47	0.686	1.29	1.03	0.814	1.13	9	6.7	8.7	6	5.8
